Read-outs that look alike come from different tables or passages of the source. Marks after values point to notes of the source that are not given here.
Tests used:
[1] = 8 hours steeping
bacteria = assay type: cell-based
barley seeds = details: in vivo
Fusarium graminearum = assay type: cell-based; details: for % of Fusarium graminearum: barley var. Lacey
[2] = DON variation during the malting process; details: for % DON reduction: H process
Description: The goal of this experiment was to follow the main steps of malt production for DON increase or decrease when barley seeds were submitted to the hypochlorite process during the first steeping, compared with the same seed not submitted to the hypochlorite process. Two samples of 1000 grams of barley seeds infected with 3.2 ppm of DON were malted and their DON contents were measured during the following steps:
1. On 50 grams of seeds just after the first steeping (7 hours steep)
2. On 50 grams of seeds just after the second steeping (5 hours steep)
3. On 50 grams of seeds on the second day of malting (half malting)
4. On 50 grams of seeds on the fourth day of malting (end of malting)
5. On 50 grams of seeds after the fist step of kilning (6 hours at 45° C.)
6. On 50 grams of seeds after the second step of kilning (3 hours at 65° C.)
7. On 50 grams of seeds after the third step of kilning (2 hours at 85° C.)
8. Control (dry seeds without treatment).

Fusarium = details: literature reports; cited from earlier work
[3] = wheat seeds; 1% concentration; cited from earlier work
Alternaria spp. = assay type: cell-based; details: barley var. Lacey
[4] = Table 6, means of 50 seeds plated in ¼ PDA medium

CCOC(C)=O [Eth. Ac. 10%, Ethyl Acetate]
Total % of DON reduction ([1]; Table 3): 70%
DON ([1]; Table 3, dry seeds 10.9): 3.3 µg/mL
Bacteria (%) (bacteria): 4%
Germin. (%) (barley seeds): 0%
Fusarium (%) (Fusarium graminearum; Table 3, 8 hours steeping): 0%

CC(=O)OO [Ac. Perac. 0.1%, peracetic acid]
Bacteria (%) (bacteria): 48%
Germin. (%) (barley seeds): 94%
Fusarium (%) (Fusarium graminearum): 56%

O=C([O-])O.[Na+] [NaHCO3 (0.5%), sodium bicarbonate]
% Bacteria (bacteria): 84%
% Germination (barley seeds): 88%
% Fusarium (Fusarium graminearum; [4]): 72%

OCl [hypochlorite]
DON levels on "H" process (b) ([2]; 1. After the first steeping, seeds with 3.2 ppm DON): 0.7 ppm
DON levels on "H" process (b) ([2]; 2. After the second steeping): 0.4 ppm
DON levels on "H" process (b) ([2]; 3. Second day of malting): 0.4 ppm
DON levels on "H" process (b) ([2]; 4. Fourth day of malting): 0.4 ppm
DON levels on "H" process (b) ([2]; 5. Fist step of kilning): 0.3 ppm
DON levels on "H" process (b) ([2]; 6. Second step of kilning): 0.3 ppm
DON levels on "H" process (b) ([2]; 7. Third step of kilning): 0.4 ppm
% DON reduction ([2]; 1. After the first steeping): 78.1%
% DON reduction ([2]; 2. After the second steeping): 87.5%
% DON reduction ([2]; 3. Second day of malting): 87.5%
% DON reduction ([2]; 4. Fourth day of malting): 87.5%
% DON reduction ([2]; 5. Fist step of kilning): 90.6%
% DON reduction ([2]; 6. Second step of kilning): 90.6%
% DON reduction ([2]; 7. Third step of kilning): 87.5%
Fusarium reduction from seeds (Fusarium): ≤ 50%

[Na+].[OH-] [NaOH 0.5%, sodium hydroxide]
% Bacteria (bacteria): 8%
Bacteria (%) (bacteria): 50%
% Germination (barley seeds): 96%
Germin. (%) (barley seeds): 88%
% Fusarium (Fusarium graminearum): 40%
Fusarium (%) (Fusarium graminearum): 68%

[K+].[OH-] [KOH (0.25%), potassium hydroxide]
% Bacteria (bacteria): 82%
% Germination (barley seeds): 94%
% Fusarium (Fusarium graminearum): 76%

OCl [sodium hypochlorite]
increase of the level of the toxin (DON) [3]: 24%
level of the toxin (DON) after treatment [3]: 1.24 ppm

CC(=O)OO [Ac. Perac. 2.0%, peracetic acid]
Bacteria (%) (bacteria): 0%
Germin. (%) (barley seeds): 0%
Fusarium (%) (Fusarium graminearum): 2%

OO [H2O2 3.0%, peroxide]
Bacteria (%) (bacteria): 62%
Germin. (%) (barley seeds): 92%
Fusarium (%) (Fusarium graminearum): 20%

[Na+].[OH-] [NaOH 0.25%, sodium hydroxide]
% Bacteria (bacteria): 44%
Bacteria (%) (bacteria): 80%
% Germination (barley seeds): 94%
Germin. (%) (barley seeds): 96%
% Fusarium (Fusarium graminearum): 44%
Fusarium (%) (Fusarium graminearum): 88%

[Cl-].[Na+] [Salt 1%, NaCl]
Total % of DON reduction ([1]; Table 3): 71%
DON ([1]; Table 3, dry seeds 10.9): 3.1 µg/mL
Bacteria (%) (bacteria): 76%
Germin. (%) (barley seeds): 72%
Fusarium (%) (Fusarium graminearum; Table 3, 8 hours steeping): 90%

[Na+].[OH-] [NaOH 1.0%, sodium hydroxide]
Bacteria (%) (bacteria): 6%
Germin. (%) (barley seeds): 66%
Fusarium (%) (Fusarium graminearum): 2%

CC(=O)OO [Ac. Perac. 0.25%, peracetic acid]
Bacteria (%) (bacteria): 62%
Germin. (%) (barley seeds): 76%
Fusarium (%) (Fusarium graminearum): 2%

[Na+].[OH-] [NaOH 0.1%, sodium hydroxide]
Bacteria (%) (bacteria): 74%
Germin. (%) (barley seeds): 76%
Fusarium (%) (Fusarium graminearum): 76%

OCl [Hypochlorite 0.8%, hypochlorite]
Total % of DON reduction ([1]; Table 4): 87.6%
DON ([1]; Table 4, dry seeds 9.7): 1.2 µg/mL
% Bacteria (bacteria): 0%
Bacteria (%) (bacteria): 2%
% of Alternaria spp. (Alternaria spp.; 2 min. disinfestations): 66%
% of Alternaria spp. (Alternaria spp.; 3 min. disinfestations): 68%
% Germination (barley seeds): 88%
Germin. (%) (barley seeds): 80%
Fusarium (%) (Fusarium graminearum; Table 4, 8 hours steeping): 2%
% Fusarium (Fusarium graminearum; [4]): 8%
% of Fusarium graminearum (Fusarium graminearum; 2 min. disinfestations): 20%
% of Fusarium graminearum (Fusarium graminearum; 3 min. disinfestations): 18%

CC(=O)OO [Ac. Perac. 0.5%, peracetic acid]
Bacteria (%) (bacteria): 28%
Germin. (%) (barley seeds): 28%
Fusarium (%) (Fusarium graminearum): 4%

O=P([O-])([O-])O.[Na+].[Na+] [Na2HPO4 (0.5%), sodium phosphate dibasic]
% Bacteria (bacteria): 72%
% Germination (barley seeds): 94%
% Fusarium (Fusarium graminearum; [4]): 70%

[Cl-].[Na+] [Salt 5%, NaCl]
Total % of DON reduction ([1]; Table 3): 77%
DON ([1]; Table 3, dry seeds 10.9): 2.5 µg/mL
Bacteria (%) (bacteria): 78%
Germin. (%) (barley seeds): 80%
Fusarium (%) (Fusarium graminearum; Table 3, 8 hours steeping): 84%

CC(=O)O [Ac. Ac. Glacial 0.25%, glacial acetic acid]
Total % of DON reduction ([1]; Table 4): 71.1%
DON ([1]; Table 4, dry seeds 9.7): 2.8 µg/mL
Bacteria (%) (bacteria): 6%
Germin. (%) (barley seeds): 64%
Fusarium (%) (Fusarium graminearum; Table 4, 8 hours steeping): 2%

O=P([O-])([O-])O.[Na+].[Na+] [Na2HPO4 (0.25%), sodium phosphate dibasic]
% Bacteria (bacteria): 68%
% Germination (barley seeds): 98%
% Fusarium (Fusarium graminearum; [4]): 68%

CCOC(C)=O [Eth. Ac. 1%, Ethyl Acetate]
Total % of DON reduction ([1]; Table 3): 68%
DON ([1]; Table 3, dry seeds 10.9): 3.5 µg/mL
Bacteria (%) (bacteria): 90%
Germin. (%) (barley seeds): 6%
Fusarium (%) (Fusarium graminearum; Table 3, 8 hours steeping): 88%

CC(=O)O [Ac. Ac. Glacial 0.5, glacial acetic acid]
Total % of DON reduction ([1]; Table 4): 62.9%
DON ([1]; Table 4, dry seeds 9.7): 3.6 µg/mL
Bacteria (%) (bacteria): 2%
Germin. (%) (barley seeds): 8%
Fusarium (%) (Fusarium graminearum; Table 4, 8 hours steeping): 4%

CC(=O)O [Ac. Ac. Glacial 1.0, glacial acetic acid]
Total % of DON reduction ([1]; Table 4): 71.1%
DON ([1]; Table 4, dry seeds 9.7): 2.8 µg/mL
Bacteria (%) (bacteria): 0%
Germin. (%) (barley seeds): 0%
Fusarium (%) (Fusarium graminearum; Table 4, 8 hours steeping): 2%

OO [H2O2 1.0%, peroxide]
Bacteria (%) (bacteria): 47%
Germin. (%) (barley seeds): 94%
Fusarium (%) (Fusarium graminearum): 38%

CCO [Alco. 1%, Alcohol]
Bacteria (%) (bacteria): 94%
Germin. (%) (barley seeds): 72%
Fusarium (%) (Fusarium graminearum): 94%

[K+].[OH-] [KOH (0.5%), potassium hydroxide]
% Bacteria (bacteria): 44%
% Germination (barley seeds): 96%
% Fusarium (Fusarium graminearum): 44%

CCO [Alco. 10%, Alcohol]
Bacteria (%) (bacteria): 100%
Germin. (%) (barley seeds): 2%
Fusarium (%) (Fusarium graminearum): 44* %

O=C([O-])O.[Na+] [NaHCO3 (0.25%), sodium bicarbonate]
% Bacteria (bacteria): 70%
% Germination (barley seeds): 90%
% Fusarium (Fusarium graminearum; [4]): 52%

CC(=O)OO [Ac. Perac. 1.0%, peracetic acid]
Bacteria (%) (bacteria): 4%
Germin. (%) (barley seeds): 0%
Fusarium (%) (Fusarium graminearum): 4%
